This note sets out measurements from US20030095933A1, “Anti-aging skin care composition and uses thereof” (priority 2001, published 2003).

The subject of data set [1] is facial skin of a human subject. The data set can be described thus: Topical application of aqueous solution to facial skin of a human subject before bedtime.
Description: Topical Application of an Aqueous Solution of Vitamin C. A one gram tablet of Vitamin C (Ascorbic acid; GNC Brand, GNC, Inc.) was dissolved to completion in 1 tablespoon of water. The resulting solution was applied to the facial skin of a human subject immediately before bedtime.
Direct Comparisons of Aqueous Vitamin C Solution to Aqueous Vitamin C Solutions Containing Additional Ingredients. Several direct comparisons were performed to determine whether the addition of additional components could improve the results observed with Vitamin C alone. In the first of these tests, an aqueous solution comprising Vitamin C alone (3 g) was applied to one side of the subject's face immediately before bedtime, while an aqueous solution comprising 3 g of Vitamin C and 600 mg of N-acetyl-cysteine (GNC, Inc.) was applied to the other half of the subject's face at the same time.
A second comparison was then performed. In this study, an aqueous solution comprising Vitamin C (3 g) and Vitamin B5 (500 mg, obtained from GNC, Inc.) was applied to one side of the subject's face immediately before bedtime, while an aqueous solution comprising 3 g of Vitamin C, 600 mg of N-acetyl-cysteine and 10 mg zinc (GNC, Inc.) was applied to the other half of the subject's face at the same time.
Tablets containing 3 g of Vitamin C, 100 mg of Vitamin B1, 500 mg of Vitamin B5 and 500 mg of N-acetyl-cysteine, all obtained from obtained from GNC, Inc., were ground into a powder and mixed together. The mixture was then added to one tablespoon of water and allowed to dissolve to completion, which took approximately 10 hrs. The resulting solution was applied to the facial skin of a human subject immediately before bedtime.
Optimization of ranges for each of the components was determined. For example, the amount of Vitamin C present in the composition described above in Example 2 was varied from 0 g to 5 g.
In an attempt to reduce the slight irritation caused by application of the anti-aging skin care composition and to enhance its effects on fine lines and wrinkles, 100 mg of lipoic acid was added to the anti-aging skin care composition comprising 3 g of Vitamin C, 100 mg of Vitamin B1, 500 mg of Vitamin B5 and 500 mg of N-acetyl-cysteine. […] The resulting solution was again applied to the facial skin of a human subject immediately before bedtime.
The nature of data set [2]: Miscibility of Vitamin E with the aqueous Vitamin C solution. The data set is classed as physicochemical. To be noted: oils and powders containing Vitamin E. The method, then: Addition of Vitamin E Prevented by Poor Solubility. […] Thus, no further studies of the effects of the addition of Vitamin E to the various anti-aging skin care compositions described herein were performed.

For `O=C1O[C@H]([C@@H](O)CO)C(O)=C1O` [Vitamin C, Ascorbic acid], in data set [1] (after approximately 6-8 hrs of sleep), the “redness or burning of the facial skin upon waking” value was “slight redness of the facial skin”. For the same molecule, in data set [1] (after approximately 6-8 hrs of sleep, overnight application), the “appearance of the facial skin upon waking” value is reported as “noticeably improved”. For the same molecule, in data set [1] (immediately after application, before the solution dried), the “sensation upon initial contact with the facial skin” value is recorded as “slight burning sensation”. In data set [1] (subsequent applications, dose of Vitamin C increased to 2 g and up to 5 g), the “redness and irritation following subsequent applications” value was “subsided greatly”.
Turning to Vitamin E, the “miscibility with the aqueous solution containing Vitamin C” value in data set [2] is recorded as “neither oils nor powders containing Vitamin E were miscible”.
